# Patent US20160115192A1, “ANTIOXIDANT, ANTI-INFLAMMATORY AND ANTICANCER DERIVATIVES OF TRIPTOLIDE AND NANOSPHERES THEREOF” (CEDARS-SINAI MEDICAL CENTER, priority 2013, published 2016)
# Legend:
# [1] = 30 minutes after administration; cited from earlier work
# [2] = cited from earlier work
# [3] = test system: B7-H1 (PD-L1); assay: Inhibition of interferon-γ-dependent expression of B7-H1 (PD-L1) on cancer cells; type: cell-based
# [4] = test system: B7-H1; settings: known effect, background; cited from earlier work
SMILES,lactone form hydrolyzed to an open ring [1] [%],solubility in water [2],"inhibitory effect on interferon-γ-dependent expression of B7-H1 (PD-L1) ([3]; MDA-MB-231 triple negative breast cancer cell, FIG. 9)","inhibitory effect on interferon-γ-dependent expression of B7-H1 (PD-L1) ([3]; MDA-MB-468 triple negative breast cancer cell, FIG. 10)","inhibitory effect on interferon-γ-dependent expression of B7-H1 (PD-L1) ([3]; U-87 MG glioma cells, FIG. 8)","inhibitory effect on interferon-γ-dependent expression of B7-H1 (PD-L1) ([3]; U-87 stem-like cells, FIG. 5)","inhibitory effect on interferon-γ-dependent expression of B7-H1 (PD-L1) ([3]; U-251 glioma cell, FIG. 7)","inhibitory effect on interferon-γ-dependent expression of B7-H1 (PD-L1) ([3]; cancer stem cell (CSC-5), FIG. 6)",expression of B7-H1 by cancer cells [4]
"CC[C@@]1(O)C(=O)OCc2c1cc1n(c2=O)Cc2cc3ccccc3nc2-1 [camptothecin, (S)-4-ethyl-4-hydroxy-1H-pyrano-[3′,4′:6,7]indolizino[1,2-b]quinoline-3, 14(4H,12H)-dione]",50,essentially insoluble,,,,,,,
"CC(C)[C@]12O[C@H]1[C@@H]1O[C@]13[C@]1(O[C@H]1C[C@H]1C4=C(CC[C@@]13C)C(=O)OC4)[C@@H]2O [triptolide, Triptolide]",,,inhibitory effect,inhibitory effect,Inhibitory effect,inhibitory effect,inhibitory effect,inhibitory effect,inhibit
